The numbers were not newly measured in US7879804B2, “Blood pressure lowering peptides in a single enzymatic step” (DSM IP Assets B.V., priority 2004, dated 2011), which cites them from elsewhere.

The IC50 is the concentration at which inhibition is half-maximal.

In series [1] the test system is spontaneously hypertensive rats. The conditions noted are these: Nakamura et al. 1995.
The next series addresses ACE (Homo sapiens, UniProt P12821). The conditions noted are these: for ACE inhibiting activities: in vitro, as reported in the literature.

Chain of ACE (P12821 30-1306, species assumed): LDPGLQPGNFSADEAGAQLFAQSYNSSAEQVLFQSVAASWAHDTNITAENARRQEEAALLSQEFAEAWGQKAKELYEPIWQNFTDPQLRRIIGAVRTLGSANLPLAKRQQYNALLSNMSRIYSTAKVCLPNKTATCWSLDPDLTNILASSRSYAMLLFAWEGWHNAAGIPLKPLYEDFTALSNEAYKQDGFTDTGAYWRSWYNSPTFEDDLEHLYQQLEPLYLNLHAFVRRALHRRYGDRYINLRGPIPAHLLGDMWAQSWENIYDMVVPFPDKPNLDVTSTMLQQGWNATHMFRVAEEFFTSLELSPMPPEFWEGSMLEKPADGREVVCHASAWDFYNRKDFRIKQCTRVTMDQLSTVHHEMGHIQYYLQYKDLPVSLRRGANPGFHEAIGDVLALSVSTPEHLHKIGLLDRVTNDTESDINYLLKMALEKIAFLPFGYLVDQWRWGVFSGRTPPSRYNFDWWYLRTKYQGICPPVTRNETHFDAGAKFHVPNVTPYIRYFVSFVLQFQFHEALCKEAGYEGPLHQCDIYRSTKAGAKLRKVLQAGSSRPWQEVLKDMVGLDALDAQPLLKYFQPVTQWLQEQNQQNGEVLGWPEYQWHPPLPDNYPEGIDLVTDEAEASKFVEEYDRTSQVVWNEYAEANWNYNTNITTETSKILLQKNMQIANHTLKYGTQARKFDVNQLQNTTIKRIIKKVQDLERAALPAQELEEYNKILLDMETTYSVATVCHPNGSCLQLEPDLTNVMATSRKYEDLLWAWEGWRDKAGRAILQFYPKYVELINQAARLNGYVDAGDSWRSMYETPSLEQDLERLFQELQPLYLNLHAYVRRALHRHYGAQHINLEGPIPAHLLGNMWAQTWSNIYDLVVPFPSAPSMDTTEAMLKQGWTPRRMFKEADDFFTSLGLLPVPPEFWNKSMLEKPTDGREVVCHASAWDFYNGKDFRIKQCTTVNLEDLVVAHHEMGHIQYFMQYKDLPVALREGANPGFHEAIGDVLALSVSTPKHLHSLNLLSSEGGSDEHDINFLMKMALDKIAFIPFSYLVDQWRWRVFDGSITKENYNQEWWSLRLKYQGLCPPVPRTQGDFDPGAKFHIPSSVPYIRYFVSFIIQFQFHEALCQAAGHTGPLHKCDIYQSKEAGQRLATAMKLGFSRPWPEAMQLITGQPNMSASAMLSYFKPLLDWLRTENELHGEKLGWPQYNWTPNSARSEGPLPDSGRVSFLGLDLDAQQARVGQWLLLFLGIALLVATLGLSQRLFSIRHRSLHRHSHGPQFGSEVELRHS

For the substance Ile-Pro-Pro [IPP], the antihypertensive effects result in series [1] is recorded as “confirmed”. For the same substance, the ACE inhibiting activities entry on ACE was “Strong”.

Consider Leu-Pro-Pro [LPP], for which, on ACE, the ACE inhibiting activities result is reported as “Strong”.

Regarding Val-Pro-Pro [VPP], the antihypertensive effects result in series [1] is reported as “confirmed”. Also, the 50% inhibitory concentration (IC50) on ACE (ACE inhibition, reported by EP 0 583 074) was 9 µM. Also, the ACE inhibiting activities result on ACE is reported as “Strong”.
